What was measured:
Type in all cases: cell-based
[1] = system: human neurons co-cultured with LPS-pre-activated human microglia; test: LPS-toxin induced microglia-neuron co-culture Parkinson's disease model (neurite length); settings: 1.5 μM, 48 hours, without PSA-20 0.64+/−0.01, FIG. 9A
Experimental: Human induced pluripotent stem cell-derived microglia (iPSdM) were obtained from induced pluripotent stem (iPS) cells. The microglial iPSdM line 1 (iPSdM-1) was used in this study generated from the iLB-C-35m-r1 clone (Bonn). iPSdM-1 (here named microglia or microglial cells) were cultured in N2-medium consisting of DMEM/F12 culture medium (Gibco) supplemented with 1% N2 (Invitrogen), 0.48 mM L-glutamine (Gibco) and 100 μg/ml penicillin/streptomycin (Gibco). Human induced pluripotent stem (iPS) cells (Foreskin-1, WiCell) were used for the generation of primitive neural stem cell (pNSC) and their differentiation into neurons according to a modified protocol, which was used to obtain primitive neural precursors from human embryonic stem cells. Briefly, iPS cells were cultured on feeder cells to form small colonies. […]
10 pictures per condition per experiment were taken by confocal laser scanning microscopy (Fluoview 1000, Olympus). Measurement of neuronal branches was done by ImageJ/Neuron J software (NIH) and relative neural branches lengths were quantified. […]

human microglial cells = test: Phagocytosis associated oxidative burst: neural debris triggered superoxide release (DHE)
Experimental: To measure the relative production of superoxide by the microglial cells, human microglial cells were plated in 4-chamber culture dishes. After 24 hours cells were treated with 5 mg/ml neural debris for 15 minutes with or without 1 hour PSA-20 pre-incubation at concentrations of 0.15 μM, 0.5 μM or 1.5 μM. Then, cells were washed 2-times with Krebs-HEPES-buffer. To detect the release of superoxide the cells were afterwards incubated for 15 minutes with 30 μM superoxide-sensitive fluorescent dye dihydroethidium (DHE) solution diluted in Krebs-HEPES-buffer. Finally cells were washed 2-times with Krebs-HEPES-buffer and fixed for 15 minutes with 0.25% glutaraldehyde and 4% PFA. In total, six images were randomly collected per experimental group by confocal laser scanning microscopy (Fluoview 1000, Olympus). All cells of the collected images were analyzed by Image J software (NIH).
To confirm the effect, Trolox as scavenger of superoxide and superoxide dismutase-1 (SOD1) as modifier of superoxide were used in a control experiment as described above using 1.5 μM of PSA-20 but adding either 40 μM Trolox or 20 μg/ml (SOD1) into the medium. […] As can be taken from the FIG. 9C, the radical scavenger Trolox and the superoxide dismutase SOD1 neutralized the neural debris triggered superoxide release and as controls confirmed that DHE detected an extracellular production of superoxide.

[2] = system: co-culture of human microglial line and iPS cell derived neurons; test: Microglial neurotoxicity in human microglia-neuron co-culture, 24 hours (neurite length); settings: 1.5 μM, 24 hours co-culture; FIG. 4D
Experimental: Next, the human microglial line was co-cultured for 24 hours with neurons derived from induced pluripotent stem cells and the effect of low molecular weight polysialic acid (PSA-20; 1.5 μM) on microglial neurotoxicity was evaluated. The human neurons were generated from human induced pluripotent stem cells (iPS cells). In vitro differentiation into neurons was carried out using a short modified protocol, which was used to induce primitive neural precursors. In detail, iPS cells were cultured on feeder cells to form small colonies. Next medium was changed to neural induction medium in the presence of LIF and three small molecules CHIR99021 (inhibitor of GSK-3β) and SB431542 (inhibitor of TGF-β and activin receptors), and compound E (inhibitor of γ-secretase) for 10 days. To expand the neural precursors, cells were dissociated to single cells by accutase and plated on poly-L-ornithine/fibronectin coated cell culture dishes with induction medium in the presence of leukaemia inhibitory factor (LIF), CHIR99021 and SB431542. […] Ten random photographs were taken for each condition by confocal laser scanning microscopy (Fluoview 1000, Olympus) and length of neuronal branches was measured by Neuron J software (NIH).

## poly-(α(2→8)Neu5Ac)n [PSA-20]
[1]
  relative neurite length: 0.91+/−0.02
Human microglial cells; 0.5 μM and 1.5 μM
  superoxide release triggered by neural debris: inhibited
Human microglial cells; 1.5 μM, 1 hour pre-incubation, debris alone 1.5+/−0.08, FIG. 9C
  relative superoxide production, debris-induced: 0.9+/−0.05
[2]
  neurotoxic effect of human microglia on human neurons (relative neurite length): completely prevented the neurotoxic effect

Source: patent publication US9944721B2, “Polysialic acid and use for treatment of neurodegenerative and neuroinflammatory diseases” (RHEINISCHE FRIEDRICH-WILHELMS UNIVERSITÄT BONN, priority 2013, dated 2018)
